In the assay the test system is IPLB-Sf-21 cells. Description: Determination of the biological activity of the peptides: cell count of serum-weaned IPLB-Sf-21 cultures after four days with peptide. It counts as cell-based, Spodoptera frugiperda. As to conditions: for peptide concentration at which the maximum growth-promoting effect was achieved: serum-free TC100 medium; for Rel. yield: IPLB-Sf-21, TC100 medium, 4 days. The method, then: IPLB-Sf-21 cells (ACC1 19, DSMZ in Braunschweig, Germany) were obtained from Dr. Victor Romanowski (Instituto de Bioquímica y Biología Molecular, Facultad de Ciencias Exactas, Universidad Nacional de la Plata, República Argentina) and maintained at 28° C. in TC-100 medium (Gibco/Life Technologies, Grand Island, N.Y., USA) containing 10% foetal calf serum (FCS, SIGMA, St. Louis, Mo., USA).
IPLB-Sf-21 cells were sown at a starting density of 5×10^4 cells in 1 ml of culture medium (TC-100+10% FCS) in the individual wells of 24-well culture plates. The plates were incubated at 27° C. for two days in a humidified chamber. During the following two days, the cultures were weaned off the serum additive by replacing the medium several times with pure TC100 medium and were then provided with the peptides or peptide fractions at various concentrations. Control cultures were cultivated in pure TC100 medium.
Four days later, the cells were harvested by being scraped off carefully. The cell count per culture well was determined by counting in a Neubauer chamber with an inverted microscope. The Neubauer chamber had two regions for counting. Each sample was counted three times in each of the two regions (six values per sample).

For AC-HQP-OH [Tripeptide], the “peptide concentration at which the maximum growth-promoting effect was achieved” value (IPLB-Sf-21 cells) was 0.1 µg/mL. The Rel. yield reads like this: (Tripeptide concentration 0.01 μg/ml, cell yield relative to cultures without peptide and without FCS) 1.251; (Tripeptide concentration 0.1 μg/ml, cell yield relative to cultures without peptide and without FCS) 1.345; (Tripeptide concentration 1 μg/ml, cell yield relative to cultures without peptide and without FCS) 1.101; (Tripeptide concentration 10 μg/ml, cell yield relative to cultures without peptide and without FCS) 1.030; (Tripeptide concentration 100 μg/ml, cell yield relative to cultures without peptide and without FCS) 0.826. For the same substance, the “concentrations resulting in growth inhibition” value (very high concentrations, IPLB-Sf-21 cells) is more than 10 µg/mL.

For Ac-HQPHQPLPPT-OH [Decapeptide], the Rel. yield reads like this: (Decapeptide concentration 0.01 μg/ml, cell yield relative to cultures without FCS) 1.051; (Decapeptide concentration 0.1 μg/ml, cell yield relative to cultures without FCS) 1.182; (Decapeptide concentration 1 μg/ml, cell yield relative to cultures without FCS) 1.272; (Decapeptide concentration 10 μg/ml, cell yield relative to cultures without FCS) 1.175; (Decapeptide concentration 100 μg/ml, cell yield relative to cultures without FCS) 0.866. In addition, the “peptide concentration at which the maximum growth-promoting effect was achieved” value (IPLB-Sf-21 cells) is 1 µg/mL. For the setting “concentrations higher than 1 μg/ml, IPLB-Sf-21 cells”, the “effect of higher concentrations on cell growth” value was “growth inhibition”.

For the origin of these results see patent US20040086965A1, “Casein peptide fragments with growth-influencing activity on cell cultures” (priority 2000, published 2004).
